The values that follow come from patent US20040242489A1, “Method for improving stability of a bone-connecting implant” (priority 2001, published 2004).

The test system of experiment [1] is bone-connecting implant in a human. Description: Displacement or migration of implant by radiosterometric analysis (RSA) in patients treated with PTH. Format: in vivo. From the text: For example, in Hilding, M. et al., Acta Orthopaedica Scandinavica 71:553-557 (2000), several 0.8 mm tantalum markers were positioned in both the proximal tibia and the plastic insert during total knee replacement surgeries. The positions of the markers were followed by radiographs taken one day, six weeks, six months and one year following the operation as a means to monitor postoperative implant shifting. Other techniques for measuring or evaluating the stability of bone-connecting implants are known to those skilled in the art and may be applied to the present invention.
The displacement or migration of the implanted artificial hip is measured over a 6-month period using radiosterometric analysis (RSA) as described in Hilding et al., supra.
The displacement or migration of the implanted artificial hip is measured over a 9-month period using radiosterometric analysis (RSA) as described in Hilding et al., supra.
The displacement or migration of the implanted tibia is measured over a 4-month period using radiosterometric analysis (RSA) as described in Hilding et al., supra.
The displacement or migration of the implanted artificial knee is measured over a 12-month period using radiosterometric analysis (RSA) as described in Hilding et al., supra.

Experiment [2] deals with rats, stainless steel screw. As to conditions: 60 μg/kg/day for four weeks; cited from earlier work.
Experiment [3] deals with rats, titanium bone chamber. The conditions noted are these: 15-240 μg/kg/day for six weeks; cited from earlier work.
The test system of experiment [4] is humans suffering from osteoporosis. The conditions noted are these: cited from earlier work.
Experiment [5] has as its system knee prosthesis in patients. The conditions noted are these: administered orally to patients undergoing total knee replacement; cited from earlier work.

Take “PTH(1-34): The N-terminal 34 amino acids of human PTH (parathyroid hormone); PTH utilized in Examples 1-5 (SVSEIQLMHNLGKHLNSMERVEWLRKKLQDVHNF; Parathyroid hormone; UniProt P01270 32-65, looked up, fragment)”: the likelihood of reoperation result in experiment [1] (Example 1: person, osteoporosis, artificial hip, regimen of Table 1) was “reduce the likelihood of reoperation”; in experiment [1] (Example 2: person, osteoarthritis, artificial hip, regimen of Table 2), “reduce the likelihood of reoperation”; in experiment [1] (Example 3: person, tibia replacement, regimen of Table 3), “reduce the likelihood of reoperation”; in experiment [1] (Example 4: person, knee replacement, regimen of Table 4), “reduce the likelihood of a reoperation”; in experiment [1] (Example 5: person, artificial hip, regimen of Table 5), “reduce the likelihood of reoperation”. Besides, in experiment [2], the “fixation of a stainless steel screw” value is “enhances fixation of a stainless steel screw”. Moreover, the new bone formation entry in experiment [3] is recorded as “enhances new bone formation”. For the same compound, the fractures result in experiment [4] is recorded as “reduce fractures”. Also, the “spinal bone mineral content” value in experiment [4] is “increase spinal bone mineral content”.
As for `O=P(O)(O)C(Cl)(Cl)P(=O)(O)O` [Clodronate], the prosthetic migration entry in experiment [5] was “appeared to reduce prosthetic migration”.
